According to EP1435238A1, “Methods for treating apnea and apnea disorders using optically pure R (+) ondansetron” (Sepracor Inc., priority 1999, dated 2000):

Experiment: Electrophysiological effects (EKG, QTc interval, cardiotoxicity) in dogs
Format: in vivo, mongrel dogs
Conditions: for prolongation of QTc interval (comparison in words): among the animals tested; for QTc Interval: dogs, rising cumulative dose at 30 minute intervals; for dogs died / survived: during or shortly after the experiment, four dogs per treatment, cumulative doses up to 4.0 mg/kg
[1] = 4.0 mg/kg, N=4 except S(-) ondansetron N=3

Procedure: An investigation was conducted to determine the effect of racemic ondansetron and the R(+)- and S(-)- enanatiomers of ondansetron in causing cardiac arrhythmias (cardiotoxicity) resulting from a lengthening of the cardiac action potential.
The order of administration was randomized to ensure that each dog received only one treatment.

Cc1nccn1C[C@H]1CCc2c(c3ccccc3n2C)C1=O [R(+)-Ondansetron, R(+) ondansetron]
prolongation of QTc interval (comparison in words): shortest
cardiotoxicity (comparison in words) (conclusion from QTc and mortality data): less cardiotoxicity than either S(-) ondansetron or racemic ondansetron
QTc Interval (1.0 mg/kg, N=4): 0.39 ± 0.01 s
QTc Interval (2.0 mg/kg, N=4): 0.40 ± 0.01 s
QTc Interval [1]: 0.41 ± 0.02 s
dogs died / survived: survived

Cc1nccn1C[C@@H]1CCc2c(c3ccccc3n2C)C1=O [S(-)-Ondansetron, S(-) ondansetron]
prolongation of QTc interval (comparison in words): most prolonged
QTc Interval (1.0 mg/kg, N=4): 0.43 ± 0.02 s
QTc Interval (2.0 mg/kg, N=4): 0.44 ± 0.04 s
QTc Interval [1]: 0.44 ± 0.03 s

Cc1nccn1CC1CCc2c(c3ccccc3n2C)C1=O (racemic) [R,S-Ondansetron, ondansetron]
prolongation of QTc interval (comparison in words): most prolonged
QTc Interval (1.0 mg/kg, N=4): 0.41 ± 0.01 s
QTc Interval (2.0 mg/kg, N=4): 0.45 ± 0.01 s
QTc Interval [1]: 0.47 ± 0.01 s
dogs died / survived: survived
